Results: patent publication US20060074079A1, “Solid pharmaceutical formulations comprising Diacereine and Meloxicam” (Leopoldo Espinosa Abdala, priority 2004, published 2006)

Tests used:
[1] = test system: cyclooxygenase (COX) from kidney or platelet; settings: from kidney or platelet (LaVilla et al., 1989); cited from earlier work
[2] = test system: Interleukin-1 beta production in human monocytes; settings: human monocytes in vitro (Berdah et al., 1993); cited from earlier work
[3] = clinical trials, administered to 2 years; cited from earlier work
[4] = test system: gout arthritis induced by intra-articular uric acid; assay: Pain Induced Functional Impairment model in the Rat (PIFIR), analgesic activity; type: in vivo, male Wistar rats; settings: oral, single doses, rats with gout arthritis, FIG. 1
Method: The experiments were carried out using male Wistar rats having a body weight between 180 and 200 g. […] The number of test animals was taken to the minimal (6 animals for each experimental aspect). Animals were kept in a room with light/darkness cycles. Rats were fastened twelve hours prior the beginning of experiments, leaving only free access to water. All the experiments were run during the light phase, using the animals only once.
The evaluation of analgesic effects was carried out using the Pain Induced Functional Impairment model in the Rat (PIFIR) model. Animals were anesthetized in a glass desiccator saturated with ether vapors. Gout arthritis was induced, upon application of a intra-articular injection of 0.05 ml of uric acid suspended in mineral oil, in the right-side hind leg, exactly in the femoral-tibio-patellar joint. […] Variable measured was contact time of each hind leg of every rat in the cylinder.
Rats were administered with each of the compounds orally. […] This period of time (2.5 hours after administration of uric acid) was considered as time “0”, in order to administer in this point of time the antinociceptive or analgesic treatment and the temporary course of each treatment were determined during the following 4 continuous hours. […]
Data are expressed as Percentage of Functionality Index (FI %). […]

SMILES	activity of cyclooxygenase (COX) [1]	Interleukin-1 beta production [2]	safety on long-term administration [3]	TC efficacy (analgesic effect, FI % temporal course) [4]
CC(=O)Oc1cccc2c1C(=O)c1c(OC(C)=O)cc(C(=O)O)cc1C2=O [Diacereine, 1,8-diacetoxy-3-carboxy-anthraquinone]	does not disrupt	inhibit	without having safety problems	unable to generate analgesic effects
O=C(O)c1cc(O)c2c(c1)C(=O)c1cccc(O)c1C2=O [reine, Reine]	–	inhibit	–	–
